Assay results from publication PMC6017567, “Chemical Constituents from Apios americana and Their Inhibitory Activity on Tyrosinase” (Molecules : A Journal of Synthetic Chemistry and Natural …, 2018).
Like-named read-outs stand apart in the source and are kept apart here.

How the values were obtained:
[1] = target: T1, tyrosinase (Agaricus bisporus, UniProt C7FF04); format: biochemical; details: preincubated with enzyme
Target sequence in this assay (C7FF04 2-392): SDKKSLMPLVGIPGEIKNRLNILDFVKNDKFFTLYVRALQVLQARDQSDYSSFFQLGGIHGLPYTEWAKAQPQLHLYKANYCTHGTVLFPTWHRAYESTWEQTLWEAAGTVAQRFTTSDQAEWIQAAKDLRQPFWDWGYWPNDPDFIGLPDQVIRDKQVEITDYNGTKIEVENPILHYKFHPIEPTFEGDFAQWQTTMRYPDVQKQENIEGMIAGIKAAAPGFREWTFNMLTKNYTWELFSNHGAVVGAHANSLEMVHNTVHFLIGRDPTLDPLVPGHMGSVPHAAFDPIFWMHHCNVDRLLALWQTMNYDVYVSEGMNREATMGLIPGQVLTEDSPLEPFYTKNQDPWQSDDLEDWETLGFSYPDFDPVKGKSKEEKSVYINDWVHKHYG
Experimental: The amount of L-DOPA converted from L-tyrosine as substrate of this enzyme was quantified in the presence of each respective compound [7].
Briefly, tyrosinase (~45 U/mL, 130 µL) in 50 µM phosphate buffer (pH 6.8) was added to 96-well plates. Twenty microliters of each respective compound (1 mM) were dissolved in MeOH, and compounds 2 and 8 (diluted to 0.065 mM) were added. Finally, 50 µL 1.5 mM L-tyrosine were added as a substrate. After initiating the enzyme reaction at 37 °C, the products were measured using UV-Vis determination (wavelength, 475 nm) for 20 min. The inhibition ratio was calculated using the following Equation (3):Inhibitory activity (%) = [(Δcontrol − Δinhibitor)/Δcontrol] × 100(3)

[2] = target: T1, tyrosinase; assay: Enzyme kinetics (Lineweaver-Burk and Dixon plots); format: biochemical; details: Lineweaver-Burk plot
Experimental: Enzyme kinetics are used to confirm the binding positions between an enzyme and inhibitor [7]. This study confirmed the effect of the substrate concentration on tyrosinase activity using four different concentrations. The initial velocity (vi) was calculated at steady-state. A Lineweaver–Burk plot was represented by 1/v versus 1/substrate in the presence of inhibitor according to enzyme kinetics theory. Their regression lines intersected the y-axis at the same point and the x-axis at different points.
Target sequence in this assay (C7FF04 2-392): as above

[3] = target: T1, tyrosinase; assay: Slow-binding (time-dependent) inhibition kinetics; format: biochemical; set-up: purchased Sigma-Aldrich T3824; details: for Time dependence of interaction with tyrosinase: time-course enzyme assay
Experimental: These curves were calculated by the following Equation (1):(1) [P]=vst+vi−vs/kobs[1−exp(−kobst)] where [P] is the concentration of product from the catalytic reaction, and the first-order rate constant (kobs) is the slow-binding constant corresponding to vi and vs.
The plot of kobs versus [inhibitor, I] is represented in Figure 3B.
First, the initial enzyme–ligand complex (E·I) forms rapidly, and then the isomerized enzyme–ligand complex (E*·I) forms slowly. Using Equation (3), k3 , k4 , and Kiapp kinetic parameters were calculated as 0.0041 S^−1, 0.0004 S^−1, and 35.8 µM, respectively (Table 2).
Target sequence in this assay (C7FF04 1-392 limits assumed): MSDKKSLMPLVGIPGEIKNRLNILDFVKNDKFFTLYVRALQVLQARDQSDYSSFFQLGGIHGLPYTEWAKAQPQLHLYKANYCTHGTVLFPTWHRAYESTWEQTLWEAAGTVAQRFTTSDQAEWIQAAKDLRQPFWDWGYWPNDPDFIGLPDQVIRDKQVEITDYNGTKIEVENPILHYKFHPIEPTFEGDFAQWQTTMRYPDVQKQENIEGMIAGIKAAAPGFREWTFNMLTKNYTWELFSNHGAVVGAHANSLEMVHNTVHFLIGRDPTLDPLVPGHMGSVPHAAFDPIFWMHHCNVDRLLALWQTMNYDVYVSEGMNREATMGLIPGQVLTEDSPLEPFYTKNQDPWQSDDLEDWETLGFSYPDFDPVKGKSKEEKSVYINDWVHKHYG

[4] = target: T1, tyrosinase; set-up: method as in earlier work; details: ref 8 (Chang et al.); cited from earlier work
Target sequence in this assay (C7FF04 2-392): as the sequence (C7FF04 2-392) above

[5] = time-dependent inhibition, kobs versus [I]

SMILES | Increase of inhibitory activity by preincubation compared with IC50 in the absence of preincubation [1] [fold] | Binding Mode [2] | Ki [3] [µM] | Time dependence of interaction with tyrosinase [3] | k5 [3, 5] [S^−1] | k6 [3, 5] [S^−1] | Binding Mode [4]
O=c1c2c(O)cc(O)cc2oc2oc3cc(O)ccc3c12 [compound 2, lupinalbin A] | 3 | Competitive | 35.8 | time-dependent manner | 0.0041 | 0.0004 | –
O=c1c(-c2ccc(O)cc2)coc2cc(O)c(O)cc12 [6,7,4′-trihydroxyisolflavone] | – | – | – | – | – | – | competitive inhibitor
O=c1c(-c2ccc(O)cc2O)coc2cc(O[C@@H]3O[C@H](CO[C@@H]4O[C@H](CO)[C@@H](O)[C@H](O)[C@H]4O)[C@@H](O)[C@H](O)[C@H]3O)cc(O)c12 [compound 8, 2′-hydroxygenistein-7-O-gentibioside] | – | Competitive | – | did not exhibit this pattern | – | – | –
